# Experimental data reported in US9296745B2, “Diacylglycerol acyltransferase 2 inhibitors” (Pfizer Inc., priority 2012, dated 2016).
# Biological target: Human DGAT2 (hDGAT2) (Homo sapiens (Human), UniProt Q96PD7)
# Test: In vitro DGAT2 assay, IC50 determination with hDGAT2 membrane fraction
# Assay type: biochemical
# Conditions: geometric mean; background for complete inhibition of DGAT2 obtained with 50 μM (1R,2R)-2-({3′-Fluoro-4′-[(6-fluoro-1,3-benzothiazol-2-yl)amino]-1,1′-biphenyl-4-yl}carbonyl)cyclopentanecarboxylic acid; read-out: DGAT2 IC50
# In short: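 CHAPS-solubilized membrane fraction of FLAG-tagged hDGAT2 from baculovirus-infected SF9 cells (0.01 mg/mL) in 100 mM Hepes-NaOH pH 7.4, 20 mM MgCl2, 200 nM methyl arachidonyl fluorophosphonate; compounds pre-incubated 20 min with 0.04% BSA. Reaction 40 min at room temperature, stopped with H3PO4. [^14C]tridecanoylglycerol in organic phase counted; 11-point geometric mean IC50.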
# Sequence of Human DGAT2 (hDGAT2) (Q96PD7 whole entry): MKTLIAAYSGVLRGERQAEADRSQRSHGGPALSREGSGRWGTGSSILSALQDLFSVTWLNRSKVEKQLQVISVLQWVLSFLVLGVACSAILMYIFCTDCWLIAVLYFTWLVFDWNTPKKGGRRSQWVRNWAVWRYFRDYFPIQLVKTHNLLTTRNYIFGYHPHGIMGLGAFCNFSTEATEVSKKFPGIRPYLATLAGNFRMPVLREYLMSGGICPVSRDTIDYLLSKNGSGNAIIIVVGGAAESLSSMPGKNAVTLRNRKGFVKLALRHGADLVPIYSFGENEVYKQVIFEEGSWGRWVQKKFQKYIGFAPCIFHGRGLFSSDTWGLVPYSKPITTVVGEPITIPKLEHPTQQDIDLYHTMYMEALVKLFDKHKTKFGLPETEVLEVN
row,SMILES,IC50 [nM]
1,"O=C([C@@H]1CCCN(c2ccc3nc(-c4ccnc(NC5CC5)n4)[nH]c3n2)C1)N1CCCC1 [Example 15, (R)-(1-(2-(2-(Cyclopropylamino)pyrimidin-4-yl)-3H-imidazo[4,5-b]pyridin-5-yl)piperidin-3-yl)(pyrrolidin-1-yl)methanone]",89.6
2,"CN(CC1CC1)C(=O)[C@@H]1CCCN(c2ccc3nc(-c4ccnc(C5CC5)n4)[nH]c3n2)C1 [Example 221, (R)—N-(Cyclopropylmethyl)-1-(2-(2-cyclopropylpyrimidin-4-yl)-3H-imidazo[4,5-b]pyridin-5-yl)-N-methylpiperidine-3-carboxamide]",290
3,"O=C([C@@H]1CCCN(c2ccc3nc(-c4ccnc(N5CCOCC5)n4)[nH]c3n2)C1)N1CCCC1 [Example 25, (R)-(1-(2-(2-Morpholinopyrimidin-4-yl)-3H-imidazo[4,5-b]pyridin-5-yl)piperidin-3-yl)(pyrrolidin-1-yl)methanone]",297
4,"O=C([C@@H]1CCCN(c2ccc3nc(C4(n5cc(C6CC6)cn5)CC4)[nH]c3n2)C1)N1CCCC1 [Example 77, (R)-(1-(2-(1-(4-Cyclopropyl-1H-pyrazol-1-yl)cyclopropyl)-3H-imidazo[4,5-b]pyridin-5-yl)piperidin-3-yl)(pyrrolidin-1-yl)methanone]",107
5,"O=C([C@@H]1CCCN(c2ccc3nc(C4(n5cc(Cl)cn5)CC4)[nH]c3n2)C1)N1CC=CC1 [Example 212, (R)-(1-(2-(1-(4-Chloro-1H-pyrazol-1-yl)cyclopropyl)-3H-imidazo[4,5-b]pyridin-5-yl)piperidin-3-yl)(2,5-dihydro-1H-pyrrol-1-yl)methanone]",18.9
6,"CN(C)C(=O)[C@@H]1CCCN(c2ccc3nc(-c4ccnc(C5CC5)n4)[nH]c3n2)C1 [Example 71, (R)-1-(2-(2-Cyclopropylpyrimidin-4-yl)-3H-imidazo[4,5-b]pyridin-5-yl)-N,N-dimethylpiperidine-3-carboxamide]",1470
7,"O=C([C@H]1CN(c2ccc3nc(-c4cccc(C5CC5)n4)[nH]c3n2)CCO1)N1CCCC1 [Example 142, (R)-(4-(2-(6-Cyclopropylpyridin-2-yl)-3H-imidazo[4,5-b]pyridin-5-yl)morpholin-2-yl)(pyrrolidin-1-yl)methanone]",24.8
8,"O=C([C@@H]1CCCN(c2ccc3nc(C4(n5cccn5)CC4)[nH]c3n2)C1)N1CCCC1 [Example 79, (R)-(1-(2-(1-(1H-Pyrazol-1-yl)cyclopropyl)-3H-imidazo[4,5-b]pyridin-5-yl)piperidin-3-yl)(pyrrolidin-1-yl)methanone]",230
9,"O=C([C@@H]1CCCN(c2ccc3nc(-c4ccnc(C5CC5)n4)[nH]c3n2)C1)N1CC(F)(F)C1 [Example 176, (R)-(1-(2-(2-Cyclopropylpyrimidin-4-yl)-3H-imidazo[4,5-b]pyridin-5-yl)piperidin-3-yl)(3,3-difluoroazetidin-1-yl)methanone]",73.4
10,"CSc1cnn(C2(c3nc4ccc(N5CCC[C@@H](C(=O)N6CCCC6)C5)nc4[nH]3)CC2)c1 [Example 189, (R)-(1-(2-(1-(4-(Methylthio)-1H-pyrazol-1-yl)cyclopropyl)-3H-imidazo[4,5-b]pyridin-5-yl)piperidin-3-yl)(pyrrolidin-1-yl)methanone]",34.1
11,CC(C)(c1nc2ccc(N3CCC[C@@H](C(=O)N4CCCC4)C3)nc2[nH]1)n1cc(Cl)cn1 [Example 188],31.4
12,"O=C([C@@H]1CCCN(c2ccc3nc(C4(c5ccon5)CC4)[nH]c3n2)C1)N1CCCC1 [Example 93, (R)-(1-(2-(1-(Isoxazol-3-yl)cyclopropyl)-3H-imidazo[4,5-b]pyridin-5-yl)piperidin-3-yl)(pyrrolidin-1-yl)methanone]",202
13,"CC(C)c1csc(-c2nc3ccc(N4CCC[C@@H](C(=O)N5CCCC5)C4)nc3[nH]2)n1 [Example 4, (R)-(1-(2-(4-Isopropylthiazol-2-yl)-3H-imidazo[4,5-b]pyridin-5-yl)piperidin-3-yl)(pyrrolidin-1-yl)methanone]",6.64
14,"O=C([C@@H]1CCCN(c2ccc3nc(-c4nccc(C5CC5)n4)[nH]c3n2)C1)N1CCOCC1 [Example 149, (R)-(1-(2-(4-Cyclopropylpyrimidin-2-yl)-3H-imidazo[4,5-b]pyridin-5-yl)piperidin-3-yl)(morpholino)methanone]",766
15,"O=C([C@@H]1CCCN(c2ccc3nc(-c4ccnc(C5CC5)n4)[nH]c3n2)C1)N1CCC(F)(F)C1 [Example 131, (R)-(1-(2-(2-Cyclopropylpyrimidin-4-yl)-3H-imidazo[4,5-b]pyridin-5-yl)piperidin-3-yl)(3,3-difluoropyrrolidin-1-yl)methanone]",34.4
16,"O=C(Nc1ccccn1)c1nc2ccc(N3CCC[C@@H](C(=O)N4CCCC4)C3)nc2[nH]1 [Example 130, (R)—N-(Pyridin-2-yl)-5-(3-(pyrrolidine-1-carbonyl)piperidin-1-yl)-3H-imidazo[4,5-b]pyridine-2-carboxamide]",1900

# Continued, values first:
row,IC50 [nM],SMILES
1,275,"N#CC1(c2cccc(-c3nc4ccc(N5CCC[C@@H](C(=O)N6CCCC6)C5)nc4[nH]3)n2)CC1 [Example 156, (R)-1-(6-(5-(3-(Pyrrolidine-1-carbonyl)piperidin-1-yl)-1H-imidazo[4,5-b]pyridin-2-yl)pyridin-2-yl)cyclopropanecarbonitrile]"
2,2.71,"CC(C)Cc1csc(-c2nc3ccc(N4CCC[C@@H](C(=O)N5CCCC5)C4)nc3[nH]2)n1 [Example 2, (R)-(1-(2-(4-Isobutylthiazol-2-yl)-3H-imidazo[4,5-b]pyridin-5-yl)piperidin-3-yl)(pyrrolidin-1-yl)methanone]"
3,1390,"O=C1COc2ccc(-c3nc4ccc(N5CCC[C@@H](C(=O)N6CCCC6)C5)nc4[nH]3)cc2N1 [Example 27, (R)-6-(5-(3-(Pyrrolidine-1-carbonyl)piperidin-1-yl)-3H-imidazo[4,5-b]pyridin-2-yl)-2H-benzo[b][1,4]oxazin-3(4H)-one]"
4,94.4,"O=C([C@@H]1CCCN(c2ccc3nc(-c4cc(C5CC5)ccn4)[nH]c3n2)C1)N1CCCC1 [Example 98, (R)-(1-(2-(4-Cyclopropylpyridin-2-yl)-3H-imidazo[4,5-b]pyridin-5-yl)piperidin-3-yl)(pyrrolidin-1-yl)methanone]"
5,36.5,"Cc1cccc(-c2nc3ccc(N4CCC[C@@H](C(=O)N5CCCC5)C4)nc3[nH]2)n1 [Example 44, (R)-(1-(2-(6-Methylpyridin-2-yl)-3H-imidazo[4,5-b]pyridin-5-yl)piperidin-3-yl)(pyrrolidin-1-yl)methanone]"
6,90.3,"NS(=O)(=O)c1cccc(-c2nc3ccc(N4CCC[C@@H](C(=O)N5CCCC5)C4)nc3[nH]2)c1 [Example 114, (R)-3-(5-(3-(Pyrrolidine-1-carbonyl)piperidin-1-yl)-3H-imidazo[4,5-b]pyridin-2-yl)benzenesulfonamide]"
7,346,"O=C([C@@H]1CCCN(c2ccc3nc(-c4ccccc4F)[nH]c3n2)C1)N1CCCC1 [Example 21, (R)-(1-(2-(2-Fluorophenyl)-3H-imidazo[4,5-b]pyridin-5-yl)piperidin-3-yl)(pyrrolidin-1-yl)methanone]"
8,83,"NC(=O)c1cccc(-c2nc3ccc(N4CCC[C@@H](C(=O)N5CCCC5)C4)nc3[nH]2)n1 [Example 172, (R)-6-(5-(3-(Pyrrolidine-1-carbonyl)piperidin-1-yl)-3H-imidazo[4,5-b]pyridin-2-yl)picolinamide]"
9,21.2,"O=C([C@@H]1CCCN(c2ccc3nc(-c4cccc(F)c4)[nH]c3n2)C1)N1CCCC1 [Example 35, (R)-(1-(2-(3-Fluorophenyl)-3H-imidazo[4,5-b]pyridin-5-yl)piperidin-3-yl)(pyrrolidin-1-yl)methanone]"
10,73.7,"Cc1ccc(C2(c3nc4ccc(N5CCC[C@@H](C(=O)N6CCCC6)C5)nc4[nH]3)CC2)cc1 [Example 103, (R)-Pyrrolidin-1-yl(1-(2-(1-(p-tolyl)cyclopropyl)-3H-imidazo[4,5-b]pyridin-5-yl)piperidin-3-yl)methanone]"
11,97,"Cc1cncc(-c2nc3ccc(N4CCC[C@@H](C(=O)N5CCCC5)C4)nc3[nH]2)c1 [Example 33, (R)-(1-(2-(5-Methylpyridin-3-yl)-3H-imidazo[4,5-b]pyridin-5-yl)piperidin-3-yl)(pyrrolidin-1-yl)methanone]"
12,6.85,"O=C([C@@H]1CCCN(c2ccc3nc(-c4coc(-c5ccccc5)n4)[nH]c3n2)C1)N1CCCC1 [Example 39, (R)-(1-(2-(2-Phenyloxazol-4-yl)-3H-imidazo[4,5-b]pyridin-5-yl)piperidin-3-yl)(pyrrolidin-1-yl)methanone]"
13,9.21,"O=C([C@@H]1CCCN(c2ccc3nc(-c4ccnc(C5CCC5)n4)[nH]c3n2)C1)N1CCCC1 [Example 147, (R)-(1-(2-(2-Cyclobutylpyrimidin-4-yl)-3H-imidazo[4,5-b]pyridin-5-yl)piperidin-3-yl)(pyrrolidin-1-yl)methanone]"
14,208,"O=C([C@@H]1CCCN(c2ccc3nc(-c4ccc5nccn5c4)[nH]c3n2)C1)N1CCCC1 [Example 19, (R)-(1-(2-(Imidazo[1,2-a]pyridin-6-yl)-3H-imidazo[4,5-b]pyridin-5-yl)piperidin-3-yl)(pyrrolidin-1-yl)methanone]"
15,118,"Cc1nc(-c2nc3ccc(N4CCC[C@@H](C(=O)N5CCCC5)C4)nc3[nH]2)cs1 [Example 17, (R)-(1-(2-(2-Methylthiazol-4-yl)-3H-imidazo[4,5-b]pyridin-5-yl)piperidin-3-yl)(pyrrolidin-1-yl)methanone]"
16,47.8,"CNS(=O)(=O)c1cncc(-c2nc3ccc(N4CCC[C@@H](C(=O)N5CCCC5)C4)nc3[nH]2)c1 [Example 100, (R)-N-Methyl-5-(5-(3-(pyrrolidine-1-carbonyl)piperidin-1-yl)3H-imidazo[4,5-b]pyridin-2-yl)pyridine-3-sulfonamide]"

# Same assay, conditions: geometric mean; background for complete inhibition of DGAT2 obtained with Example 196-A instead of the cyclopentanecarboxylic acid reference; read-out: DGAT2 IC50 (nM), values in the parentheses
row,IC50 [nM],SMILES
1,238,"O=C([C@@H]1CCCN(c2ccc3nc(C4(n5cccn5)CC4)[nH]c3n2)C1)N1CCCC1 [Example 79, (R)-(1-(2-(1-(1H-Pyrazol-1-yl)cyclopropyl)-3H-imidazo[4,5-b]pyridin-5-yl)piperidin-3-yl)(pyrrolidin-1-yl)methanone]"
